Data published in ChEMBL document CHEMBL1201862, “PubChem BioAssay data set” (2004).
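Grown in 96-well plates, cells were treated for 48 hours with each compound at five concentrations. Insufficient inhibition: endpoint recorded as highest concentration tested. Abbreviation: GI50, concentration required for 50% inhibition of growth.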 Activity calls are given as the source filed them. Rule as the data show it: active = GI50 up to about 1.1 µM and inactive = higher.

Key:
Experiment in all cases: NCI anticancer screen, dose series, 48 h
ACHN = system: ACHN
COLO 205 = system: COLO 205
EKVX = system: EKVX
HCT-116 = system: HCT-116
HCT-15 = system: HCT-15
HOP-92 = system: HOP-92
KM12 = system: KM12
LOX IMVI = system: LOX IMVI
M14 = system: M14
MCF7 = system: MCF7
MDA-MB-435 = system: MDA-MB-435
Malme-3M = system: Malme-3M
NCI-H23 = system: NCI-H23
NCI-H460 = system: NCI-H460
OVCAR-8 = system: OVCAR-8
SK-MEL-2 = system: SK-MEL-2
SK-OV-3 = system: SK-OV-3
SNB-19 = system: SNB-19
UACC-62 = system: UACC-62
HL-60 = system: HL-60

Measured: GI50

Nc1ncnc2c1ncn2[C@@H]1C[C@H](NO)[C@@H](O)[C@H]1O
16.4 µM: HCT-15
inactive: ACHN > 100 µM | COLO 205 > 100 µM | EKVX > 100 µM | HCT-116 4.88 µM | HOP-92 > 100 µM | KM12 9.25 µM | LOX IMVI 13.1 µM | M14 > 100 µM | MCF7 49.3 µM | MDA-MB-435 > 100 µM | Malme-3M > 100 µM | NCI-H23 > 100 µM | NCI-H460 > 100 µM | OVCAR-8 > 100 µM | SK-MEL-2 > 100 µM | SK-OV-3 > 100 µM | SNB-19 > 100 µM | UACC-62 > 100 µM

COC(=O)CCC1=NCC(C)(C)O1
> 10 µM: HCT-15
inactive: ACHN > 10 µM | COLO 205 > 10 µM | EKVX > 10 µM | HCT-116 > 10 µM | KM12 > 10 µM | LOX IMVI > 10 µM | M14 > 10 µM | MCF7 > 10 µM | MDA-MB-435 > 10 µM | Malme-3M > 10 µM | NCI-H23 > 10 µM | NCI-H460 > 10 µM | OVCAR-8 > 10 µM | SK-MEL-2 > 10 µM | SK-OV-3 > 10 µM | SNB-19 > 10 µM | UACC-62 > 10 µM

Cc1ccc(C(=O)OC[C@H]2CC[C@@H](n3cc(N(C)C4CCCCC4)c(=O)[nH]c3=O)O2)cc1
24.5 µM: HCT-15
inactive: ACHN 26.6 µM | COLO 205 19.1 µM | EKVX 38.9 µM | HCT-116 16.7 µM | HL-60 27.9 µM | KM12 19.6 µM | LOX IMVI 19.1 µM | M14 11 µM | MCF7 22.1 µM | MDA-MB-435 65.2 µM | Malme-3M 24.7 µM | NCI-H23 43.9 µM | NCI-H460 32.7 µM | OVCAR-8 28.1 µM | SK-MEL-2 85.7 µM | SK-OV-3 8.28 µM | SNB-19 19.3 µM | UACC-62 29.7 µM

COC(=O)CCC(=O)c1ccc2c(c1)CC1(Cc3ccccc3C1)C2
inactive: ACHN 56.2 µM | COLO 205 29.4 µM | EKVX > 100 µM | HCT-116 28.3 µM | HOP-92 31.3 µM | KM12 > 100 µM | LOX IMVI 36.2 µM | M14 > 100 µM | MCF7 85.5 µM | MDA-MB-435 64 µM | Malme-3M 80.5 µM | NCI-H23 40.1 µM | OVCAR-8 47.1 µM | SK-MEL-2 34.7 µM | SK-OV-3 > 100 µM | UACC-62 > 100 µM

CCOP(=O)(/C=C\n1ccc(N)nc1=O)OCC
inactive: ACHN > 100 µM | COLO 205 > 100 µM | EKVX > 100 µM | HCT-116 > 100 µM | HL-60 > 100 µM | KM12 > 100 µM | LOX IMVI > 100 µM | M14 > 100 µM | MCF7 > 100 µM | MDA-MB-435 > 100 µM | NCI-H23 > 100 µM | NCI-H460 > 100 µM | OVCAR-8 > 100 µM | SK-MEL-2 > 100 µM | SK-OV-3 > 100 µM | SNB-19 > 100 µM | UACC-62 > 100 µM
> 100 µM: HCT-15

O=C1C2=Cc3ccccc3OC2(O)Oc2cc(O)ccc21 (centres undefined)
inactive: ACHN > 100 µM | COLO 205 > 100 µM | EKVX > 100 µM | HCT-116 > 100 µM | HOP-92 > 100 µM | KM12 > 100 µM | LOX IMVI > 100 µM | M14 > 100 µM | MCF7 > 100 µM | MDA-MB-435 > 100 µM | Malme-3M > 100 µM | NCI-H23 > 100 µM | OVCAR-8 > 100 µM | SK-MEL-2 > 100 µM | SK-OV-3 > 100 µM | UACC-62 > 100 µM
97.7 µM: HCT-15

CC(=O)OCC1=C(C)C(OC(=O)C(OC(C)=O)[C@@H](NC(=O)c2ccccc2)c2ccccc2)CCC1(C)C (some centres undefined)
inactive: ACHN > 100 µM | COLO 205 > 100 µM | EKVX > 100 µM | HCT-116 > 100 µM | HL-60 > 100 µM | KM12 > 100 µM | LOX IMVI > 100 µM | MCF7 > 100 µM | MDA-MB-435 > 100 µM | Malme-3M > 100 µM | NCI-H23 > 100 µM | NCI-H460 > 100 µM | OVCAR-8 > 100 µM | SK-OV-3 > 100 µM | SNB-19 > 100 µM | UACC-62 > 100 µM
> 100 µM: HCT-15
